# Measurements: patent US20230085307A1, “PYRIDAZINONE COMPOUND AND HERBICIDE” (NISSAN CHEMICAL CORPORATION, priority 2019, published 2023)
# Assays:
# barnyard grass [1] = assay: Test Example 3: herbicidal effect by foliage application, Wagner pot (Table 18, symbol H); type: in vivo, barnyard grass (Echinochloa crus-galli); conditions: 320 g/ha
# Outline: (§1)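 Plants were sown in alluvial soil held under 0.1–0.5 cm standing water and grown 14 days in a greenhouse at 25–30 °C. An emulsifiable formulation, water-diluted to the set dose, was then sprayed onto the foliage, and effects were scored three weeks later using previously defined criteria.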
# Chinese sprangletop = assay: Test Example 3: herbicidal effect by foliage application, Wagner pot (Table 18, symbol D); type: in vivo, chinese sprangletop (Leptochloa chinensis); conditions: 320 g/ha
# Outline: as §1
# rice flat sedge = assay: Test Example 3: herbicidal effect by foliage application, Wagner pot (Table 18, symbol E); type: in vivo, rice flat sedge (Cyperus iria); conditions: 320 g/ha
# Outline: as §1
# southern crabgrass [2] = assay: Test Example 4: herbicidal effect by soil treatment (Table 19, symbol F); type: in vivo, southern crabgrass (Digitaria ciliaris); conditions: 320 g/ha
# Outline: (§2)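 Pre-emergence style soil spray: seeds under ~1.5 cm sterilized diluvial soil received a uniform coat of emulsion diluted to the predetermined herbicide amount. Greenhouse 25–30° C; readout at week three on previously defined criteria.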
# green foxtail [3] = assay: Test Example 4: herbicidal effect by soil treatment (Table 19, symbol G); type: in vivo, green foxtail (Setaria viridis); conditions: 320 g/ha
# Outline: as §2
# barnyard grass [4] = assay: Test Example 4: herbicidal effect by soil treatment (Table 19, symbol H); type: in vivo, barnyard grass (Echinochloa crus-galli); conditions: 320 g/ha
# Outline: as §2
# wild oat [5] = assay: Test Example 4: herbicidal effect by soil treatment (Table 19, symbol I); type: in vivo, wild oat (Avena fatua); conditions: 320 g/ha
# Outline: as §2
# blackgrass [6] = assay: Test Example 4: herbicidal effect by soil treatment (Table 19, symbol J); type: in vivo, blackgrass (Alopecurus myosuroides); conditions: 320 g/ha
# Outline: as §2
# Italian ryegrass [7] = assay: Test Example 4: herbicidal effect by soil treatment (Table 19, symbol K); type: in vivo, Italian ryegrass (Lolium multiflorum); conditions: 320 g/ha
# Outline: as §2
# windgrass [8] = assay: Test Example 4: herbicidal effect by soil treatment (Table 19, symbol L); type: in vivo, windgrass (Apera spica-venti); conditions: 320 g/ha
# Outline: as §2
# velvetleaf [9] = assay: Test Example 4: herbicidal effect by soil treatment (Table 19, symbol M); type: in vivo, velvetleaf (Abutilon theophrasti); conditions: 320 g/ha
# Outline: as §2
# redroot pigweed [10] = assay: Test Example 4: herbicidal effect by soil treatment (Table 19, symbol N); type: in vivo, redroot pigweed (Amaranthus retroflexus); conditions: 320 g/ha
# Outline: as §2
# lambsquarters [11] = assay: Test Example 4: herbicidal effect by soil treatment (Table 19, symbol O); type: in vivo, lambsquarters (Chenopodium album); conditions: 320 g/ha
# Outline: as §2
# chickweed [12] = assay: Test Example 4: herbicidal effect by soil treatment (Table 19, symbol P); type: in vivo, common chickweed (Stellaria media); conditions: 320 g/ha
# Outline: as §2
# persian speedwell [13] = assay: Test Example 4: herbicidal effect by soil treatment (Table 19, symbol R); type: in vivo, Persian speedwell (Veronica persica); conditions: 320 g/ha
# Outline: as §2
# southern crabgrass [14] = assay: Test Example 5: herbicidal effect by foliage application, plastic box (Table 20, symbol F); type: in vivo, southern crabgrass (Digitaria ciliaris); conditions: foliage application, 320 g/ha, evaluated three weeks after application
# Outline: (§3)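 Plants were sown into sterilized diluvial soil under about 1.5 cm cover and kept in a greenhouse at 25° C. to 30° C. Fourteen days on, foliage received an even spray of the diluted emulsion. Herbicidal or crop effect was judged three weeks afterwards.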
# green foxtail [15] = assay: Test Example 5: herbicidal effect by foliage application, plastic box (Table 20, symbol G); type: in vivo, green foxtail (Setaria viridis); conditions: foliage application, 320 g/ha, evaluated three weeks after application
# Outline: as §3
# barnyard grass [16] = assay: Test Example 5: herbicidal effect by foliage application, plastic box (Table 20, symbol H); type: in vivo, barnyard grass (Echinochloa crus-galli); conditions: foliage application, 320 g/ha, evaluated three weeks after application
# Outline: as §3
# wild oat [17] = assay: Test Example 5: herbicidal effect by foliage application, plastic box (Table 20, symbol I); type: in vivo, wild oat (Avena fatua); conditions: foliage application, 320 g/ha, evaluated three weeks after application
# Outline: as §3
# blackgrass [18] = assay: Test Example 5: herbicidal effect by foliage application, plastic box (Table 20, symbol J); type: in vivo, blackgrass (Alopecurus myosuroides); conditions: foliage application, 320 g/ha, evaluated three weeks after application
# Outline: as §3
# Italian ryegrass [19] = assay: Test Example 5: herbicidal effect by foliage application, plastic box (Table 20, symbol K); type: in vivo, Italian ryegrass (Lolium multiflorum); conditions: foliage application, 320 g/ha, evaluated three weeks after application
# Outline: as §3
# windgrass [20] = assay: Test Example 5: herbicidal effect by foliage application, plastic box (Table 20, symbol L); type: in vivo, windgrass (Apera spica-venti); conditions: foliage application, 320 g/ha, evaluated three weeks after application
# Outline: as §3
# velvetleaf [21] = assay: Test Example 5: herbicidal effect by foliage application, plastic box (Table 20, symbol M); type: in vivo, velvetleaf (Abutilon theophrasti); conditions: foliage application, 320 g/ha, evaluated three weeks after application
# Outline: as §3
# redroot pigweed [22] = assay: Test Example 5: herbicidal effect by foliage application, plastic box (Table 20, symbol N); type: in vivo, redroot pigweed (Amaranthus retroflexus); conditions: foliage application, 320 g/ha, evaluated three weeks after application
# Outline: as §3
# lambsquarters [23] = assay: Test Example 5: herbicidal effect by foliage application, plastic box (Table 20, symbol O); type: in vivo, lambsquarters (Chenopodium album); conditions: foliage application, 320 g/ha, evaluated three weeks after application
# Outline: as §3
# chickweed [24] = assay: Test Example 5: herbicidal effect by foliage application, plastic box (Table 20, symbol P); type: in vivo, common chickweed (Stellaria media); conditions: foliage application, 320 g/ha, evaluated three weeks after application
# Outline: as §3
# persian speedwell [25] = assay: Test Example 5: herbicidal effect by foliage application, plastic box (Table 20, symbol R); type: in vivo, Persian speedwell (Veronica persica); conditions: foliage application, 320 g/ha, evaluated three weeks after application
# Outline: as §3
smiles,measurement,setting,value
Cc1nn(C)c(=O)c(-c2c(-c3ccc(OCC#N)cc3)sc3ccc(F)cc23)c1O [2-066],"herbicidal effect on H (barnyard grass), rating 0-5",barnyard grass [1],4 (Herbicidal rate of 70% or more and less than 90%)
same,"herbicidal effect on D (Chinese sprangletop), rating 0-5",Chinese sprangletop,3 (Herbicidal rate of 40% or more and less than 70%)
same,"herbicidal effect on E (rice flat sedge), rating 0-5",rice flat sedge,1 (Herbicidal rate of 5% or more and less than 20%)
same,"herbicidal effect rating, F: southern crabgrass",southern crabgrass [2],0 (Herbicidal rate of 5% or less (almost no effect))
same,"herbicidal effect rating, G: green foxtail",green foxtail [3],0 (Herbicidal rate of 5% or less (almost no effect))
same,"herbicidal effect rating, H: barnyard grass",barnyard grass [4],0 (Herbicidal rate of 5% or less (almost no effect))
same,"herbicidal effect rating, I: wild oat",wild oat [5],0 (Herbicidal rate of 5% or less (almost no effect))
same,"herbicidal effect rating, J: blackgrass",blackgrass [6],0 (Herbicidal rate of 5% or less (almost no effect))
same,"herbicidal effect rating, K: Italian ryegrass",Italian ryegrass [7],0 (Herbicidal rate of 5% or less (almost no effect))
same,"herbicidal effect rating, L: windgrass",windgrass [8],0 (Herbicidal rate of 5% or less (almost no effect))
same,"herbicidal effect rating, M: velvetleaf",velvetleaf [9],0 (Herbicidal rate of 5% or less (almost no effect))
same,"herbicidal effect rating, N: redroot pigweed",redroot pigweed [10],0 (Herbicidal rate of 5% or less (almost no effect))
same,"herbicidal effect rating, O: lambsquarters",lambsquarters [11],0 (Herbicidal rate of 5% or less (almost no effect))
same,"herbicidal effect rating, P: chickweed",chickweed [12],4 (Herbicidal rate of 70% or more and less than 90%)
same,"herbicidal effect rating, R: persian speedwell",persian speedwell [13],4 (Herbicidal rate of 70% or more and less than 90%)
same,herbicidal effect on F: southern crabgrass,southern crabgrass [14],3 (Herbicidal rate of 40% or more and less than 70%)
same,herbicidal effect on G: green foxtail,green foxtail [15],4 (Herbicidal rate of 70% or more and less than 90%)
same,herbicidal effect on H: barnyard grass,barnyard grass [16],2 (Herbicidal rate of 20% or more and less than 40%)
same,herbicidal effect on I: wild oat,wild oat [17],0 (Herbicidal rate of 5% or less (almost no effect))
same,herbicidal effect on J: blackgrass,blackgrass [18],0 (Herbicidal rate of 5% or less (almost no effect))
same,herbicidal effect on K: Italian ryegrass,Italian ryegrass [19],1 (Herbicidal rate of 5% or more and less than 20%)
same,herbicidal effect on L: windgrass,windgrass [20],0 (Herbicidal rate of 5% or less (almost no effect))
same,herbicidal effect on M: velvetleaf,velvetleaf [21],3 (Herbicidal rate of 40% or more and less than 70%)
same,herbicidal effect on N: redroot pigweed,redroot pigweed [22],5 (Herbicidal rate of 90% or more (almost completely withered))
same,herbicidal effect on O: lambsquarters,lambsquarters [23],4 (Herbicidal rate of 70% or more and less than 90%)
same,herbicidal effect on P: chickweed,chickweed [24],5 (Herbicidal rate of 90% or more (almost completely withered))
same,herbicidal effect on R: persian speedwell,persian speedwell [25],5 (Herbicidal rate of 90% or more (almost completely withered))
